In the test the target is T1, estrogen receptor (Homo sapiens, UniProt P03372).
T1 construct: since the MCF-7 cells express estrogen receptors; endogenous in cells; host or cells: MCF-7 human mammary carcinoma cells, infected with adenovirus 5-ERE-tk-luciferase (reporter only)
T1 sequence (P03372 1-595): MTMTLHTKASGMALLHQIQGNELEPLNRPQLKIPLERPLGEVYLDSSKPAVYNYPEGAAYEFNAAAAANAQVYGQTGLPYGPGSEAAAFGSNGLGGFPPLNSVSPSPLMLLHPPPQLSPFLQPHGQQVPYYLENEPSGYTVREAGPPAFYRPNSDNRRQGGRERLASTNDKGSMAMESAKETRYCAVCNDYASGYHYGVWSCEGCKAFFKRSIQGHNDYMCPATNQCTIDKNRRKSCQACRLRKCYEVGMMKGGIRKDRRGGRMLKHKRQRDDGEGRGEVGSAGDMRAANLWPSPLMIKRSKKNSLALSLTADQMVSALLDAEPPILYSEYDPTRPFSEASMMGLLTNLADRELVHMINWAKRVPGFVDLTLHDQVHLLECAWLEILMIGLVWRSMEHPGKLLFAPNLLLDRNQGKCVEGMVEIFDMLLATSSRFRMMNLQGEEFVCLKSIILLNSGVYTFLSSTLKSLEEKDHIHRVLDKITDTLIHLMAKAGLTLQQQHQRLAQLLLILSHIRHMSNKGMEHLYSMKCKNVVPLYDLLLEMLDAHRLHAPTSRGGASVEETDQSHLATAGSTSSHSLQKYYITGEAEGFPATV
Description: Estrogen antagonist/agonist activity in MCF-7 cells infected with adenovirus 5-ERE-tk-luciferase (luciferase reporter). Type of test: cell-based. The settings on record: antagonist mode, co-dosed with 10 pM 17β-estradiol, 24 h treatment. The text has this: Estrogen antagonist activity was shown for representative compounds of this invention in a standard pharmacological test procedure using MCF-7 cells transfected with an estrogen receptor. When administered orally, the compounds of this invention act at least partially as prodrugs for the corresponding hydroxylated compounds disclosed in EP 802183. Accordingly, the compounds of this invention are tissue selective estrogens, meaning that in certain tissue containing estrogen receptors, the compounds will act as estrogen agonists, and in other tissue containing estrogen receptors, the compounds will act as antagonists. […] The cell lysates (20 uL) were transferred to a 96 well luminometer plate, and luciferase activity was measured in a MicroLumat LB 96 P luminometer (EG and G Bethold) using 100 uL/well of luciferase substrate (Promega Corporation). […] Following the injection of the substrate, luciferase activity was measured for 10 seconds after a 1 second delay. The data were transferred from the luminometer to a Macintosh personal computer and analyzed using the JMP software (SAS institute); this program subtracts the background reading from the luciferase measurement for each well and then determine the mean and standard deviation of each treatment. […]
Background: Reporter assays use an easily measured gene product as a stand-in for the process of interest.

Molecules are shown by their SMILES.

Regarding `Cc1c(-c2ccc(O)cc2)n(Cc2ccc(OCCN3CCCCCC3)cc2)c2ccc(OC3OC(C(=O)O)C(O)C(O)C3O)cc12` (centres unmarked) [Compound 30, 1-[4-(2-Azepan-1-yl-ethoxy)-benzyl]-2-(4-hydroxy-phenyl)-3-methyl-1H-indol-5-ol 5-O-glucuronide], the IC50 – broadly, the concentration needed to halve the response being measured – was 210 nM.

`Cc1c(-c2ccc(OC3OC(C(=O)O)C(O)C(O)C3O)cc2)n(Cc2ccc(OCCN3CCCCCC3)cc2)c2ccc(O)cc12` (centres unmarked) [Compound 38, 1-[4-(2-Azepan-1-yl-ethoxy)-benzyl]-2-(4-hydroxy-phenyl)-3-methyl-1H-indol-5-ol 4-O-glucuronide]: the IC50 was 1100 nM.

The values above are taken from patent publication EP1212335B1, “GLUCOPYRANOSIDES CONJUGATES OF 2-(4-HYDROXY-PHENYL)-1- 4-(2-AMIN-1-YL-ETHOXY)-BENZYL]-1H-INDOL-5-OLS” (Wyeth, priority 1999, dated 2001).
